Measured values from ChEMBL document CHEMBL4024706 (Eur J Med Chem, 2017).

What was measured:
MV4-11 = assay: Growth inhibition of human MV411 cells; assay type: functional; settings: Homo sapiens, MV4-11
OCI-AML-3 = assay: Growth inhibition of human OCI-AML3 cells; assay type: functional; settings: Homo sapiens, OCI-AML-3
[1] = MRT (0 to t) in Sprague-Dawley rat at 1 mg/kg, iv by LC-MS/MS method; assay type: ADME, organism-based; settings: in vivo
[2] = test system: Tyrosine-protein kinase ABL1 (Homo sapiens), P00519 [F317L]; assay: Inhibition of human non-phosphorylated ABL1 F317L mutant (S229 to K512 residues) expressed in mammalian expression system assessed as residual activity at 1 uM by Kinomescan method relative to control
[3] = biological target: Tyrosine-protein kinase ABL1 (Homo sapiens) (UniProt P00519); assay: Inhibition of wild-type human phosphorylated ABL1 (S229 to K512 residues) expressed in mammalian expression system assessed as residual activity at 1 uM by Kinomescan method relative to control
[4] = biological target: Tyrosine-protein kinase ABL2 (Homo sapiens) (UniProt P42684); assay: Inhibition of wild-type human ABL2 (A248 to G542 residues) expressed in bacterial expression system assessed as residual activity at 1 uM by Kinomescan method relative to control
[5] = biological target: Aurora kinase C (Homo sapiens) (UniProt Q9UQB9); assay: Inhibition of wild-type human full length AURKC (M1 to S275 residues) expressed in bacterial expression system assessed as residual activity at 1 uM by Kinomescan method relative to control
[6] = biological target: Tyrosine-protein kinase Blk (Homo sapiens) (UniProt P51451); assay: Inhibition of wild-type human partial length BLK (G211 to L503 residues) expressed in bacterial expression system assessed as residual activity at 1 uM by Kinomescan method relative to control
[7] = biological target: Protein-tyrosine kinase 6 (Homo sapiens) (UniProt Q13882); assay: Inhibition of wild-type human partial length BRK (L166 to T451 residues) expressed in bacterial expression system assessed as residual activity at 1 uM by Kinomescan method relative to control
[8] = biological target: Myotonin-protein kinase (Homo sapiens) (UniProt Q09013); assay: Inhibition of wild-type human partial length DMPK (V47 to V415 residues) expressed in bacterial expression system assessed as residual activity at 1 uM by Kinomescan method relative to control
Chain of Myotonin-protein kinase (Homo sapiens) (Q09013 whole entry, the tested form may be a part): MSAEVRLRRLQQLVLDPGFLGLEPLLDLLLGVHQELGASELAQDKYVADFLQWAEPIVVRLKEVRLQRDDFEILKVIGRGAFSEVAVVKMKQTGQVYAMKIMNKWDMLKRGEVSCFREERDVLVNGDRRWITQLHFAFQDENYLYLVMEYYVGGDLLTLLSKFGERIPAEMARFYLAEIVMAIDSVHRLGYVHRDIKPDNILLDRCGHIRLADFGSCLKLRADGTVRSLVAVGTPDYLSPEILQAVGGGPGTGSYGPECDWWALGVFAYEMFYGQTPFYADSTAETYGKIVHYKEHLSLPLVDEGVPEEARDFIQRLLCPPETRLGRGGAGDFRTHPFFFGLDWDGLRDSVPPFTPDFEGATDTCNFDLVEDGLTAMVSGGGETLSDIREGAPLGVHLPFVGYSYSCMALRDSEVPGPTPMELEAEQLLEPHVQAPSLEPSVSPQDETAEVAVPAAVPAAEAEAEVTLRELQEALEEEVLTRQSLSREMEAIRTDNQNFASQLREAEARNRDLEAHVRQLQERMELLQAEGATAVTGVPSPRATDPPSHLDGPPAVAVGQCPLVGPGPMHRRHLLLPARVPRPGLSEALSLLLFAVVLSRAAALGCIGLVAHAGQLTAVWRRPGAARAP

[9] = biological target: Dual specificity tyrosine-phosphorylation-regulated kinase 2 (Homo sapiens) (UniProt Q92630); assay: Inhibition of wild-type human full length DYRK2 (M1 to S528 residues) expressed in mammalian expression system assessed as residual activity at 1 uM by Kinomescan method relative to control
[10] = test system: Epidermal growth factor receptor (Homo sapiens), P00533 [L858R,T790M]; assay: Inhibition of human partial length EGFR L858R/T790M double mutant (R669 to V1011 residues) expressed in mammalian expression system assessed as residual activity at 1 uM by Kinomescan method relative to control
[11] = biological target: Ephrin type-B receptor 4 (Homo sapiens) (UniProt P54760); assay: Inhibition of wild-type human partial length EPHB4 (H585 to G892 residues) expressed in bacterial expression system assessed as residual activity at 1 uM by Kinomescan method relative to control
[12] = biological target: Mitogen-activated protein kinase 1 (Homo sapiens) (UniProt P28482); assay: Inhibition of wild-type human full length ERK2 (M1 to S360 residues) expressed in bacterial expression system assessed as residual activity at 1 uM by Kinomescan method relative to control
Chain of Mitogen-activated protein kinase 1 (Homo sapiens) (P28482 whole entry, the tested form may be a part): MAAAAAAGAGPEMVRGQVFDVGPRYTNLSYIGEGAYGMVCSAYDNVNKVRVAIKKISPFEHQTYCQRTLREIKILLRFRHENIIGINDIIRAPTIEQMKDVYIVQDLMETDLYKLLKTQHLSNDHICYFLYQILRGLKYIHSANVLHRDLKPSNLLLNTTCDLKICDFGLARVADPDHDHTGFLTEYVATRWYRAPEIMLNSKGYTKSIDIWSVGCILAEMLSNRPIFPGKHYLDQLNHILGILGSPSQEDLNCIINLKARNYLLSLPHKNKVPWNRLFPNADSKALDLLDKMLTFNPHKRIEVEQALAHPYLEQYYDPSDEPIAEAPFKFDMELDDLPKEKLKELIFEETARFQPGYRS

Homo sapiens [13] = species on record: Homo sapiens; assay: Inhibition of human partial length FLT3 ITD/D835V double mutant expressed in bacterial expression system assessed as residual activity at 1 uM by Kinomescan method relative to control
Homo sapiens [14] = species on record: Homo sapiens; assay: Inhibition of human partial length FLT3 ITD/F691L double mutant expressed in bacterial expression system assessed as residual activity at 1 uM by Kinomescan method relative to control
[15] = biological target: G protein-coupled receptor kinase 3 (Homo sapiens) (UniProt P35626); assay: Inhibition of wild-type human full length GRK3 (M1 to L688 residues) expressed in mammalian expression system assessed as residual activity at 1 uM by Kinomescan method relative to control
Chain of G protein-coupled receptor kinase 3 (Homo sapiens) (P35626 whole entry, the tested form may be a part): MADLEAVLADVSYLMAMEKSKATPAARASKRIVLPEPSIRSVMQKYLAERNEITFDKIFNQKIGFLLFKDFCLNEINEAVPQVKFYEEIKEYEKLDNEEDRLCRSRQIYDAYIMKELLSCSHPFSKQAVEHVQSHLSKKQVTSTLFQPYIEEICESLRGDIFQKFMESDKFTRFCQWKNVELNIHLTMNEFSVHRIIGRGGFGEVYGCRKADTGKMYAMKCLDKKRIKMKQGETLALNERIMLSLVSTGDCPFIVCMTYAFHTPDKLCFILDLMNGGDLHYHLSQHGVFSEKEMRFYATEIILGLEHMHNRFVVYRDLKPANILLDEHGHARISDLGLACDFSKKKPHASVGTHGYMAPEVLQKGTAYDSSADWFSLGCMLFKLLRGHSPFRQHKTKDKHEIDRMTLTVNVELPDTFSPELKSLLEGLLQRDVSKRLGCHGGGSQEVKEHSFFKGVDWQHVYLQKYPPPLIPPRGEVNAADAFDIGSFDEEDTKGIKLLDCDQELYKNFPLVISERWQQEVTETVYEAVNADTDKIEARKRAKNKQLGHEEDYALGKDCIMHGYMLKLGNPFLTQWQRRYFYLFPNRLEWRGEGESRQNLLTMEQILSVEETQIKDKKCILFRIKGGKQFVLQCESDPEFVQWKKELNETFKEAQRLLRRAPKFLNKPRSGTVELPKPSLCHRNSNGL

[16] = biological target: Tyrosine-protein kinase JAK1 (Homo sapiens) (UniProt P23458); assay: Inhibition of wild-type human partial length JAK1 JH1 catalytic domain (V856 to K1154 residues) expressed in bacterial expression system assessed as residual activity at 1 uM by Kinomescan method relative to control
[17] = biological target: Serine/threonine-protein kinase MAK (Homo sapiens) (UniProt P20794); assay: Inhibition of wild-type human partial length MAK (M1 to P314 residues) expressed in bacterial expression system assessed as residual activity at 1 uM by Kinomescan method relative to control
Chain of Serine/threonine-protein kinase MAK (Homo sapiens) (P20794 whole entry, the tested form may be a part): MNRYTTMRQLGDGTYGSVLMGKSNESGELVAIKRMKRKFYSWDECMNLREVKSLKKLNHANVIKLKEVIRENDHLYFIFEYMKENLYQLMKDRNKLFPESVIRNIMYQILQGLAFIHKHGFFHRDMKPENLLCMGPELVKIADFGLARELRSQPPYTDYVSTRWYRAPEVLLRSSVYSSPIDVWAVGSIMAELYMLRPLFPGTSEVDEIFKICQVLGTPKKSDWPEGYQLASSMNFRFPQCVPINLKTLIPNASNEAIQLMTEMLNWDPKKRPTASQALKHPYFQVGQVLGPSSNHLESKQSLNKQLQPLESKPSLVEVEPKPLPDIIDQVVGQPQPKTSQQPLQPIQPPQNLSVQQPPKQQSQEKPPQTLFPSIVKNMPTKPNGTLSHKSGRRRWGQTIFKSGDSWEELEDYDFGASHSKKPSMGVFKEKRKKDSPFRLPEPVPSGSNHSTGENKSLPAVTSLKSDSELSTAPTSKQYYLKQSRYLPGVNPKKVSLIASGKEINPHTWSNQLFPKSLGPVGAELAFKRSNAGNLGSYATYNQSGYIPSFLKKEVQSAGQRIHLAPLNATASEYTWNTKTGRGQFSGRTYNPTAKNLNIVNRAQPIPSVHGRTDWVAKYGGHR

[18] = biological target: Mitogen-activated protein kinase kinase kinase 2 (Homo sapiens) (UniProt Q9Y2U5); assay: Inhibition of wild-type human partial length MAP3K2 (S315 to H619 residues) expressed in mammalian expression system assessed as residual activity at 1 uM by Kinomescan method relative to control
[19] = biological target: Serine/threonine-protein kinase 26 (Homo sapiens) (UniProt Q9P289); assay: Inhibition of wild-type human full length MST4 (M1 to P416 residues) expressed in mammalian expression system assessed as residual activity at 1 uM by Kinomescan method relative to control
Chain of Serine/threonine-protein kinase 26 (Homo sapiens) (Q9P289 2-416 limits assumed): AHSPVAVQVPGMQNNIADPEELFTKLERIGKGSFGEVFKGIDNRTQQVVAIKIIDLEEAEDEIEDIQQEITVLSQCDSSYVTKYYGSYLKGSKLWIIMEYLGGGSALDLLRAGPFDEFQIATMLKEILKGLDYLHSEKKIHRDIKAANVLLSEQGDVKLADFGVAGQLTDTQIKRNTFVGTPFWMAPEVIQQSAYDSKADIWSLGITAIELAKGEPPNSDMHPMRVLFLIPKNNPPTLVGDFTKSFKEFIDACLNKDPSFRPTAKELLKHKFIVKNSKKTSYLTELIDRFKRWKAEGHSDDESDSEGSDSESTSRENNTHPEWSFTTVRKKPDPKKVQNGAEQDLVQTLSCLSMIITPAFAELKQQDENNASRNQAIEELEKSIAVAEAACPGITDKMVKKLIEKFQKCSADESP

[20] = biological target: Serine/threonine-protein kinase Nek11 (Homo sapiens) (UniProt Q8NG66); assay: Inhibition of wild-type human partial length NEK11 (M1 to E313 residues) expressed in mammalian expression system assessed as residual activity at 1 uM by Kinomescan method relative to control
[21] = test system: Phosphatidylinositol 4,5-bisphosphate 3-kinase catalytic subunit alpha isoform (Homo sapiens), P42336 [H1047Y]; assay: Inhibition of human partial length PIK3CA H1047Y mutant (R108 to N1068 residues) expressed in mammalian expression system assessed as residual activity at 1 uM by Kinomescan method relative to control
Chain of Phosphatidylinositol 4,5-bisphosphate 3-kinase catalytic subunit alpha isoform (Homo sapiens), P42336 [H1047Y] (P42336 whole entry H1047Y, the tested form may be a part, canonical isoform): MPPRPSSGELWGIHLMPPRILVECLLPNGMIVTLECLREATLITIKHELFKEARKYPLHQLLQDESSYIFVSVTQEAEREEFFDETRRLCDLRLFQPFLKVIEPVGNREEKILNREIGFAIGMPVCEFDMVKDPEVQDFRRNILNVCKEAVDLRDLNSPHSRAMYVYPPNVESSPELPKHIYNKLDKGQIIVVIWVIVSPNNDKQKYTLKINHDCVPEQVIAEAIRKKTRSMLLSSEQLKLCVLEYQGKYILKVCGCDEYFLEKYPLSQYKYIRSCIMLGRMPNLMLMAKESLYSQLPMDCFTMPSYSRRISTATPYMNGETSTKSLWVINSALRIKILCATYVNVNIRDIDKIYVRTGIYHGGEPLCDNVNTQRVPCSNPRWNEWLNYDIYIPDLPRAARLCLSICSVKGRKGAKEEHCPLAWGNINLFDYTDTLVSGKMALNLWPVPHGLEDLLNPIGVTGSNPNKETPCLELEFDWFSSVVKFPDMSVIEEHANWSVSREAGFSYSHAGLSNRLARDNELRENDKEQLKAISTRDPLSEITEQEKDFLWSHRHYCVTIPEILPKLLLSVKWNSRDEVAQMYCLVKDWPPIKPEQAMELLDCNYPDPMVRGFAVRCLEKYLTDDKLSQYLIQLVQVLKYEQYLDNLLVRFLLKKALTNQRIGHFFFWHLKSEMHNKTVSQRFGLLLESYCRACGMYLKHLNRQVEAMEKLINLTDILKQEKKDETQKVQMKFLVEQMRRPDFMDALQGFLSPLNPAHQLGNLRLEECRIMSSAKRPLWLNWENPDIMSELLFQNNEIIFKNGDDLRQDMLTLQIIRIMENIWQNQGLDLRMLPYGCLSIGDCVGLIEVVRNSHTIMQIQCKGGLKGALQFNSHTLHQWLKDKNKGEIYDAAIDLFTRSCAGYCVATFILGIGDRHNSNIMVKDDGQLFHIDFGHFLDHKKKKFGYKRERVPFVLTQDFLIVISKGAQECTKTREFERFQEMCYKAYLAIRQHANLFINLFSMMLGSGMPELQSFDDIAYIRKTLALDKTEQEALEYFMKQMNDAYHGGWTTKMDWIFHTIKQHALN

[22] = test system: Phosphatidylinositol 4,5-bisphosphate 3-kinase catalytic subunit alpha isoform (Homo sapiens), P42336 [M1043I]; assay: Inhibition of human partial length PIK3CA M1043I mutant (R108 to N1068 residues) expressed in mammalian expression system assessed as residual activity at 1 uM by Kinomescan method relative to control
[23] = biological target: Serine/threonine-protein kinase D2 (Homo sapiens) (UniProt Q9BZL6); assay: Inhibition of wild-type human partial length PRKD2 (A519 to E838 residues) expressed in bacterial expression system assessed as residual activity at 1 uM by Kinomescan method relative to control
[24] = biological target: SNF-related serine/threonine-protein kinase (Homo sapiens) (UniProt Q9NRH2); assay: Inhibition of wild-type human partial length SNRK (M1 to E339 residues) expressed in mammalian expression system assessed as residual activity at 1 uM by Kinomescan method relative to control
[25] = biological target: Serine/threonine-protein kinase WNK4 (Homo sapiens) (UniProt Q96J92); assay: Inhibition of wild-type human partial length WNK4 (A31 to D461 residues) expressed in mammalian expression system assessed as residual activity at 1 uM by Kinomescan method relative to control
Chain of Serine/threonine-protein kinase WNK4 (Homo sapiens) (Q96J92 whole entry, the tested form may be a part): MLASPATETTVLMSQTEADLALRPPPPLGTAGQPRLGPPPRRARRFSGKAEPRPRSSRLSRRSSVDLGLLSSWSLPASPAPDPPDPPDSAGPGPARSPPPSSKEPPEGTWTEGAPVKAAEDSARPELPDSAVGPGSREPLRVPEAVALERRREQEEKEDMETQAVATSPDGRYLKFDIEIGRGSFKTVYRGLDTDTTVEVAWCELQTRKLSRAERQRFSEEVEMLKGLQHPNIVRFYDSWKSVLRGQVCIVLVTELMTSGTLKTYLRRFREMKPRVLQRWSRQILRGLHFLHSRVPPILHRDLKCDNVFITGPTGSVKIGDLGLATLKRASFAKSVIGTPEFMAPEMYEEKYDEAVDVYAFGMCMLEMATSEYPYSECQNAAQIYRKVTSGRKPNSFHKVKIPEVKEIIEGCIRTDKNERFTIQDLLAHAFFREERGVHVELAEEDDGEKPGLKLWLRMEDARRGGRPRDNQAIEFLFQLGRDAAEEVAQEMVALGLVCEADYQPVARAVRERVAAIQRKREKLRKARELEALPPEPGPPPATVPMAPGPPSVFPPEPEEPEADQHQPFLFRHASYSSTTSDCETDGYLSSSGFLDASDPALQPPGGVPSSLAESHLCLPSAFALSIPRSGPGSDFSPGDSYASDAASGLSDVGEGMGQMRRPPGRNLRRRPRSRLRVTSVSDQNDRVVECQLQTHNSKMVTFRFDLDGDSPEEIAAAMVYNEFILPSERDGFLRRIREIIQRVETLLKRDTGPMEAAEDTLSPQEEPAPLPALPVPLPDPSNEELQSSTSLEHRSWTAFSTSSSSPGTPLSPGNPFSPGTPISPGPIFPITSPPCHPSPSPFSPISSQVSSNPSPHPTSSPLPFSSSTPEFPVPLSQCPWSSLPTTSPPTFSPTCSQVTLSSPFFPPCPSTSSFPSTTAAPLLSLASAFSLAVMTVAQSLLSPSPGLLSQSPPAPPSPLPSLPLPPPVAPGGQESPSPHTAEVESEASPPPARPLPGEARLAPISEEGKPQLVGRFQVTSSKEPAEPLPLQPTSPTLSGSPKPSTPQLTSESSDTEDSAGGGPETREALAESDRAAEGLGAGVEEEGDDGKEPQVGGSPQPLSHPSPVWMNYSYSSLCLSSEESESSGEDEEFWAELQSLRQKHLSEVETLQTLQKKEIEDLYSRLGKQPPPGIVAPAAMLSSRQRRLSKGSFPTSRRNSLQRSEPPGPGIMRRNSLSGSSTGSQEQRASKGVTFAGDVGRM

C=CC(=O)Nc1cc(Nc2cc(-c3cccc(NC(=O)c4ccc(C(C)(C)C)cc4)c3C)cn(C)c2=O)ccc1C(=O)N1CCOCC1
GI50 (MV4-11): 2100 nM | GI50 (OCI-AML-3): 3800 nM | MRT last [1]: 15.6 min | Activity [2]: 88% | Activity [3]: 100% | Activity [4]: 100% | Activity [5]: 100% | Activity [6]: 82% | Activity [7]: 96% | Activity [8]: 95% | Activity [9]: 97% | Activity [10]: 89% | Activity [11]: 88% | Activity [12]: 91% | Activity (Homo sapiens [13]): 100% | Activity (Homo sapiens [14]): 87% | Activity [15]: 73% | Activity [16]: 100% | Activity [17]: 84% | Activity [18]: 89% | Activity [19]: 88% | Activity [20]: 97% | Activity [21]: 91% | Activity [22]: 100% | Activity [23]: 100% | Activity [24]: 80% | Activity [25]: 100%
